According to US7622469B2, “2,4-diamino-1,3,5-triazine derivatives” (Hamari Chemicals, Ltd., priority 2002, dated 2009):
In brackets after ≈: the same amount, converted by molar mass.

What was measured:
MRSA 97-115 [1] = assay: Antibacterial activity test (MIC); format: cell-based, methicillin-resistant Staphylococcus aureus; settings: Mueller-Hinton Broth, 37° C., 20 to 24 hours
Procedure: (§1) Regarding compounds obtained in respective Working Examples, in order to investigate antibacterial activity, minimal inhibitory concentration (MIC) was determined according to a standard method of Japanese Society of Chemotherapy.
(§2) As a test bacterium, nine kinds of S. aureus 209PJC, MRSA 97-115, MRSA KM 97-53, MRSA KM97-108, VRE 49, E. coli NIHJ JC-2, P. aeruginosa PAO-1, P. aeruginosa No. 12, P. aeruginosa KM97-5 were used and, as a medium, Mueller-Hinton Broth (DIFCO) was used. One platinum loop of a test bacterium was inoculated into 20 ml of a medium, and static culture was carried out at 37° C. for 16 to 20 hours, and then each bacterium species was diluted with a sterilized physiological saline to 10^5/ml, which was used as a test bacterium solution.
(§3) Then, each compound was dissolved in methanol, subjected to ½ stepwise dilution with a medium to prepare a medium for measuring sensitivity, and each 2 ml was dispensed into a test tube. A compound concentration in a medium was adjusted to 100 μg/ml and its 2^n-fold (n=−10 to 1).
(§4) Numerical values in Tables represent MIC expressed in μg/ml unit.

E. coli NIHJ JC-2 [2] = assay: Antibacterial activity test (MIC); format: cell-based; settings: Mueller-Hinton Broth, 37° C., 20 to 24 hours
Procedure: as §1, §2, §3, §4

P. aeruginosa PAO-1 [3] = assay: Antibacterial activity test (MIC); format: cell-based; settings: Mueller-Hinton Broth, 37° C., 20 to 24 hours
Procedure: as §1, §2, §3, §4

S. aureus 209PJC [4] = assay: Antibacterial activity test (MIC); format: cell-based; settings: Mueller-Hinton Broth, 37° C., 20 to 24 hours
Procedure: as §1, §2, §3, §4

E. coli NIHJ JC-2 [5] = assay: Bactericidal activity test (MBC, phenol coefficient measuring method); format: cell-based
Procedure: (§5) As a test bacterium, the same bacteria species as those of the antibacterial activity test were used; as a medium to be used, a SCD medium (manufactured by Eiken Chemical Co., Ltd.) was used for pre-culture medium; and a heart infusion bouillon medium (manufactured by Eiken Chemical Co., Ltd.) was used as a medium for growing a live bacterium in a test solution after bactericidal treatment. One platinum loop of a test bacterium was inoculated into 20 ml of a medium, and static culture was carried out at 37° C. for 18 to 20 hours, and the cells were adjusted with a sterilized physiological saline to 1×10^7/ml, which was used as a test bacterium solution.
(§6) Then, a solution of each compound in methanol was subjected to ½ stepwise dilution with sterilized water, each 5 ml was dispensed into a test tube, 0.5 ml of the previously prepared test bacterium solution was added thereto, and the mixture was blended well. After 1 minute, 3 minutes and 5 minutes has passed, 5 μl of the test solution was collected and inoculated into 2 ml of a heart infusion bouillon medium, this was cultured at 37° C. for 40 to 48 hours, and the presence or absence of growth of a bacterium was determined. A test was performed three times, a minimum concentration at which growth of a bacterium was not recognized two or more times was adopted as a minimal bactericidal concentration (MBC value).
(§7) Numerical values in Tables represent MBC expressed in μg/ml unit.

P. aeruginosa PAO-1 [6] = assay: as above; format: cell-based
Procedure: as §5, §6, §7

S. aureus 209PJC [7] = assay: as above; format: cell-based
Procedure: as §5, §6, §7

MRSA 97-115 [8] = assay: as above; format: cell-based, methicillin-resistant Staphylococcus aureus
Procedure: as §5, §6, §7

| SMILES | minimal inhibitory concentration (MIC) (MRSA 97-115 [1]) | minimal inhibitory concentration (MIC) (E. coli NIHJ JC-2 [2]) | minimal inhibitory concentration (MIC) (P. aeruginosa PAO-1 [3]) | minimal inhibitory concentration (MIC) (S. aureus 209PJC [4]) | minimal bactericidal concentration (MBC) (E. coli NIHJ JC-2 [5]; 1 min) | minimal bactericidal concentration (MBC) (E. coli NIHJ JC-2 [5]; 3 min) | minimal bactericidal concentration (MBC) (E. coli NIHJ JC-2 [5]; 5 min) | minimal bactericidal concentration (MBC) (P. aeruginosa PAO-1 [6]; 1 min) | minimal bactericidal concentration (MBC) (P. aeruginosa PAO-1 [6]; 3 min) | minimal bactericidal concentration (MBC) (P. aeruginosa PAO-1 [6]; 5 min) | minimal bactericidal concentration (MBC) (S. aureus 209PJC [7]; 1 min) | minimal bactericidal concentration (MBC) (S. aureus 209PJC [7]; 3 min) | minimal bactericidal concentration (MBC) (S. aureus 209PJC [7]; 5 min) | minimal bactericidal concentration (MBC) (MRSA 97-115 [8]; 1 min) | minimal bactericidal concentration (MBC) (MRSA 97-115 [8]; 3 min) | minimal bactericidal concentration (MBC) (MRSA 97-115 [8]; 5 min) |
| --- | --- | --- | --- | --- | --- | --- | --- | --- | --- | --- | --- | --- | --- | --- | --- | --- |
| CCCCCCCCCCCCC1N=C(N)NC(NCCc2ccc(OC)cc2)=N1.Cl (racemic) [15(1)] | 1.6 µg/mL | 25 µg/mL | 50 µg/mL | 0.4 µg/mL | 6.3 µg/mL | 3.1 µg/mL | 1.6 µg/mL | 6.3 µg/mL | 3.1 µg/mL | 3.1 µg/mL | 12.5 µg/mL | 3.1 µg/mL | 3.1 µg/mL | 25 µg/mL | 12.5 µg/mL | 6.3 µg/mL |
| CCCCCCCCCCCC1N=C(N)NC(NCc2ccccc2)=N1.Cl (racemic) [43(1)] | 0.8 µg/mL | 6.3 µg/mL | 25 µg/mL | 0.4 µg/mL | 12.5 µg/mL | 6.3 µg/mL | 3.1 µg/mL | 3.1 µg/mL | 3.1 µg/mL | 3.1 µg/mL | 25 µg/mL | 6.3 µg/mL | 6.3 µg/mL | 50 µg/mL | 25 µg/mL | 12.5 µg/mL |
| CCCCCCCCCCNC1=NC(C)(C)N=C(NCc2ccc(OC)cc2)N1.CS(=O)(=O)O [38(2)] | 0.8 µg/mL | 25 µg/mL | 100 µg/mL | 0.4 µg/mL | 6.3 µg/mL | 3.1 µg/mL | 3.1 µg/mL | 6.3 µg/mL | 3.1 µg/mL | 1.6 µg/mL | 12.5 µg/mL | 6.3 µg/mL | 3.1 µg/mL | 25 µg/mL | 12.5 µg/mL | 12.5 µg/mL |
| CCCCCCCCCCNC1=NC(C)(C)N=C(NCc2ccccc2)N1.CS(=O)(=O)O [compound 2] | 0.8 µg/mL |  |  | 0.4 µg/mL | 6.3 µg/mL | 3.1 µg/mL | 3.1 µg/mL | 3.1 µg/mL | 1.6 µg/mL | 1.6 µg/mL | 12.5 µg/mL | 6.3 µg/mL | 3.1 µg/mL | 25 µg/mL | 12.5 µg/mL | 6.3 µg/mL |
| CCCCCCCCCCNC1=NC(C)(C)N=C(NCCc2ccc(OC)cc2)N1.Cl [compound 4] | 0.8 µg/mL | 50 µg/mL | 50 µg/mL | 0.4 µg/mL | 3.1 µg/mL | 1.6 µg/mL | 1.6 µg/mL | 3.1 µg/mL | 3.1 µg/mL | 1.6 µg/mL | 50 µg/mL | 12.5 µg/mL | 6.3 µg/mL | 25 µg/mL | 6.3 µg/mL | 6.3 µg/mL |
| CC(=O)O.CCCCCCCNC1=NC(C)(C)N=C(NC(C)(C)CC(C)(C)C)N1 [compound 71] | 0.8 µg/mL | 100 µg/mL | 100 µg/mL | 0.8 µg/mL |  |  |  |  |  |  |  |  |  |  |  |  |
| CC(=O)O.CCCCCCCCCCCCNC1=NC(C)(C)N=C(NCC)N1 [compound 73] | 1.6 µg/mL | 12.5 µg/mL | 50 µg/mL | 0.8 µg/mL |  |  |  |  |  |  |  |  |  |  |  |  |
| CC(=O)O.CCCCCCCCNC1=NCN=C(NCCCCCCCC)N1 [compound 74] | 0.8 µg/mL | 12.5 µg/mL | 100 µg/mL | 0.8 µg/mL |  |  |  |  |  |  |  |  |  |  |  |  |
| CCCCCCCCCCCCNC1=NC(C)(C)N=C(N)N1.O=[N+]([O-])O [compound 75] | 3.1 µg/mL | 25 µg/mL | 50 µg/mL | 0.8 µg/mL |  |  |  |  |  |  |  |  |  |  |  |  |
| CCCCCCCCNC1=NC(C)(C)N=C(NCCCCCC)N1.O=C(O)C(O)C(O)C(O)C(O)CO [compound 76] | 1.6 µg/mL | 25 µg/mL | 50 µg/mL | 0.8 µg/mL |  |  |  |  |  |  |  |  |  |  |  |  |
| CC(=O)O.CCCCCCCCCCCCNC1=NC(C)(C)N=C(NCc2ccco2)N1 [compound 79] | 1.6 µg/mL | 50 µg/mL | 100 µg/mL | 0.8 µg/mL |  |  |  |  |  |  |  |  |  |  |  |  |
| CCCCCCCCCCCCNC1=NC(C)(C)N=C(NCc2ccc(S(N)(=O)=O)cc2)N1 [compound 80] | 1.6 µg/mL (≈ 3.34 µM) | >100 µg/mL | >100 µg/mL | 0.4 µg/mL (≈ 0.836 µM) |  |  |  |  |  |  |  |  |  |  |  |  |
| CCCCCCCCNC1=NC(C)(C)N(c2cnc3ccccc3c2)C(N)=N1.Cl.Cl [compound 81] | 1.6 µg/mL | 12.5 µg/mL | 50 µg/mL | 0.8 µg/mL |  |  |  |  |  |  |  |  |  |  |  |  |
